From patent US20260199514A1, “PRODRUG STRATEGY THAT ENHANCES EFFICACY AND LOWERS SYSTEMIC TOXICITY OF MERTANSINE” (priority 2022, published 2026)

Experiments:
NCI-H929 MM Cells = experiment: In vitro cytotoxicity assay (CCK-8); assay type: cell-based, human; settings: NCI-H929 cell line
Description: Next, we evaluated the efficacy of liposomal DM1-Prodrug formulations against MM cells in vitro. For this, NCI-H929 cells were incubated with NP[Prodrug], TNP[Prodrug], free DM1-Prodrug or free drug for 24 h, 48 h and 72 h, and cell viability was determined using cell counting kit-8 (CCK-8) reagent. […] The differences in the IC50 values between free drug and the nanoparticles is possibly attributed to the release kinetics of active DM1 from nanoparticles.
Cell Culture. NCI-H929 cells were purchased from ATCC (Rockville, MD). Cells were cultured in RPMI 1640 media (Corning, NY). The cell line was supplemented with 20% fetal bovine serum (FBS), 2 mM L-Glutamine (Gibco, CA), 100U/mL penicillin (Gibco, CA), 100 μg/mL streptomycin (Gibco) and 55 μM 2-mercaptoethanol.
Cytotoxicity Assays. 15×10^3 cells/well were plated 24 h prior to each experiment in a 96-well plate. The following day, cells were treated with respective cytotoxic agents at varying concentrations. Cytotoxicity was assessed at 24 h, 48 h and 72 h using Cell Counting Kit-8 Reagent via reading absorbance at 450 nm. Viability was normalized to wells containing untreated cells.

NCI-H929 cells = experiment: Apoptosis assay (Annexin-V / PI staining); assay type: cell-based, human; settings: 20 nM equivalence of DM1, 24 h, Annexin-V and PI
Description: NCI-H929 cells were incubated with 20 nM equivalence of DM1 concentration either in the form of one of the liposomal prodrug formulations, or the free drug for 24 h.
Apoptosis Assay. NCI-H929 cells were cultured in the presence of 20 nM of DM1 equivalent concentrations of NP[Prodrug], TNP[Prodrug], and free drug for 24 h. Cells were washed and stained using the Dead Cell Apoptosis Kit by following and optimizing the manufacturer's protocol. Briefly, cells were washed with cold PBS, resuspended in 1X binding buffer, followed by Annexin-V and PI staining for 30 min at room temperature. Staining was performed by adding 7 μL of Alexa Fluor® 488 Annexin-V and 8 μL of 100 μg/mL PI working solution to each 100 μL of cell suspensions. Cells in treatment groups and untreated control were stained with Annexin-V and PI. Fluorescent microscopy images were acquired by using an EVOS® FL Auto Imaging System.

[1] = Maximum tolerated dose (MTD) study in healthy mice; assay type: in vivo; settings: healthy NOD-SCID mice
Description: When mice were injected with free DM1 at a dose over 0.5 mg/kg twice on days 0 and 3, we observed that all animals lost over 15% of their body weight and were morbid before the end of the week (FIG. 5). […] We concluded that liposomal prodrug formulations made treatment with DM1 possible in comparison to free DM1, where its intense systemic toxicity made it a non-viable treatment option. With this approach of liposomal prodrug formulation, even the non-targeted formulations already achieved an improved therapeutic index for DM1.
Maximum Tolerated Dose (MTD) Study. […] Free drug (DM1) was administered according to the recommendations of the manufacturer. Briefly, Free drug treatments were prepared by dissolving in 10% DMSO and 90% saline containing (20% Hydroxypropyl-β-cyclodextrin as excipient) and then administered intravenously into mice.

For `COc1cc2cc(c1Cl)N(C)C(=O)C[C@H](OC(=O)[C@H](C)N(C)C(=O)CCS)[C@]1(C)O[C@H]1[C@H](C)[C@@H]1C[C@@](O)(NC(=O)O1)[C@H](OC)/C=C/C=C(\C)C2` [free DM1, Mertansine], the IC50 (NCI-H929 MM Cells; 24 hours) was 12 nM, the IC50 (NCI-H929 MM Cells; 72 hours) was 9 nM and the “induction of apoptosis of MM cells” value (NCI-H929 cells) was “induce apoptosis”. The body weight loss ([1]; dose over 0.5 mg/kg twice on days 0 and 3) was “over 15%” and the “toxicity / side-effects in MTD study” value ([1]; injections on days 0 and 3, equivalent DM1 doses (nanoparticles up to 4 mg/kg)) was “morbid”.
